pKi: −log10 of the molar value.
Target: T1, human cloned 5-HT6 receptors (Homo sapiens, UniProt P50406)
T1 construct: expressed in transfected cells; host or cells: Hela cells
Test: 5-HT6 binding affinity, [3H]-LSD displacement in membranes of Hela cells
Settings: not given
Procedure: The affinity of test compounds for the serotonin 5-HT6 receptor is evaluated in the following manner. Cultured Hela cells expressing human cloned 5-HT6 receptors are harvested and centrifuged at low speed (1,000×g) for 10.0 min to remove the culture media. The harvested cells are suspended in half volume of fresh physiological phosphate buffered saline solution and recentrifuged at the same speed. This operation is repeated. The collected cells are then homogenized in ten volumes of 50 mM Tris.HCl (pH 7.4) and 0.5 mM EDTA. The homogenate is centrifuged at 40,000×g for 30.0 min and the precipitate is collected. The obtained pellet is resuspended in 10 volumes of Tris.HCl buffer and recentrifuged at the same speed. The final pellet is suspended in a small volume of Tris.HCl buffer and the tissue protein content is determined in aliquots of 10-25 μl volumes. Bovine Serum Albumin is used as the standard in the protein determination according to the method described in Lowry et al., J. Biol. Chem., 193:265 (1951). The volume of the suspended cell membranes is adjusted to give a tissue protein concentration of 1.0 mg/ml of suspension. The prepared membrane suspension (10 times concentrated) is aliquoted in 1.0 ml volumes and stored at −70° C. until used in subsequent binding experiments.
The reaction is allowed to proceed in the dark for 120 min at room temperature, at which time, the bound ligand-receptor complex is filtered off on a 96 well unifilter with a Packard Filtermate® 196 Harvester. The bound complex caught on the filter disk is allowed to air dry and the radioactivity is measured in a Packard TopCount® equipped with six photomultiplier detectors, after the addition of 40.0 μl Microscint®-20 scintillant to each shallow well. The unifilter plate is heat-sealed and counted in a PackardTopCount® with a tritium efficiency of 31.0%.
Specific binding to the 5-HT6 receptor is defined as the total radioactivity bound less the amount bound in the presence of 10.0 μM unlabeled methiothepin. Binding in the presence of varying concentrations of test compound is expressed as a percentage of specific binding in the absence of test compound. The results are plotted as logit % bound versus log concentration of test compound. Nonlinear regression analysis of data points with a computer assisted program Prism® yields both the IC50 and the Ki values of test compounds with 95% confidence limits.
The amount of displacement by the test compound is given in percent (%) inhibition and is derived from the following equation: [formula] where B0 is the amount of CPM bound in the presence of the testing agent. NSB represents the CPM bound in the presence of a saturating concentration of a displacer and TB represents the total amount of CPM bound at zero (0) concentration of test compound.
Alternatively, a linear regression line of decline of data points is plotted, from which the IC50 value can be read off and the Ki value determined by solving the following equation: [formula] where L is the concentration of the radioactive ligand used and KD is the dissociation constant of the ligand for the receptor, both expressed in nM.

T1 sequence (P50406 whole entry): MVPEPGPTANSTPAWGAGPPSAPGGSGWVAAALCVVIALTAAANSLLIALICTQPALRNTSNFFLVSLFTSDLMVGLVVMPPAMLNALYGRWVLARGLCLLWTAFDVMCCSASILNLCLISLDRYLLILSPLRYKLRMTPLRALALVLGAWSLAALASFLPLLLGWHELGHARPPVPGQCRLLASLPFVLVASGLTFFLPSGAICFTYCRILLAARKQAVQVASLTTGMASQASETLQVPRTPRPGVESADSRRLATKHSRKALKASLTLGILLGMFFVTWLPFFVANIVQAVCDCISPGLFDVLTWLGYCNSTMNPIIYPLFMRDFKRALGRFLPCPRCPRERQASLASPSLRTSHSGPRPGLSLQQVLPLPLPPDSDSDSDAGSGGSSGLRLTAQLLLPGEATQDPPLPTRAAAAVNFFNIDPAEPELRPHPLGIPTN

Going from `CC(=NNC(=N)N)c1cn(S(=O)(=O)c2ccccc2Br)c2ccccc12` [Example 31, 2-(1-{1-[(2-bromophenyl)sulfonyl]-1H-indol-3-yl}ethylidene)hydrazinecarboximidamide] to `CC(=NNC(=N)N)c1cn(S(=O)(=O)c2cccc(Br)c2)c2ccccc12` [Example 32, 2-(1-{1-[(3-bromophenyl)sulfonyl]-1H-indol-3-yl}ethylidene)hydrazinecarboximidamide], the pKi falls from 7.89 to 7.59 (0.30 log units).

With `CC(=NNC(=N)N)c1cn(S(=O)(=O)c2cccc3nonc23)c2ccccc12` [Example 25] the pKi was 7.82.

Same assay, conditions: test compound dose 100 nM; [3H]-LSD 3.0 nM

Going from `CC(=NNC(=N)N)c1cn(S(=O)(=O)c2cc([N+](=O)[O-])ccc2C)c2ccccc12` [Example 46, 2-(1-{1-[(2-methyl-5-nitrophenyl)sulfonyl]-1H-indol-3-yl}ethylidene)hydrazinecarboximidamide] to `CC(=NNC(=N)N)c1cn(S(=O)(=O)c2ccc([N+](=O)[O-])cc2)c2ccccc12` [Example 52, 2-(1-{1-[(4-nitrophenyl)sulfonyl]-1H-indol-3-yl}ethylidene)hydrazinecarboximidamide], the inhibition at 0.1 µM falls from 41% to 28.2%.

Going from `CC(=NNC(=N)N)c1cn(S(=O)(=O)c2ccc(-c3ccccc3)cc2)c2ccccc12` [Example 26, 2-{1-[1-([1,1′-biphenyl]-4-ylsulfonyl)-1H-indol-3-yl]ethylidene}hydrazinecarboximidamide] to `CC(=NNC(=N)N)c1cn(S(=O)(=O)c2ccc(Br)cc2)c2ccccc12` [Example 30, 2-(1-{1-[(4-bromophenyl)sulfonyl]-1H-indol-3-yl}ethylidene)hydrazinecarboximidamide], the inhibition at 0.1 µM rises from 39.7% to 65%.

Going from `CC(=NNC(=N)N)c1cn(S(=O)(=O)c2ccccc2Br)c2ccccc12` [Example 31, 2-(1-{1-[(2-bromophenyl)sulfonyl]-1H-indol-3-yl}ethylidene)hydrazinecarboximidamide] to `CC(=NNC(=N)N)c1cn(S(=O)(=O)c2cccc(Br)c2)c2ccccc12` [Example 32, 2-(1-{1-[(3-bromophenyl)sulfonyl]-1H-indol-3-yl}ethylidene)hydrazinecarboximidamide], the inhibition at 0.1 µM falls from 83.3% to 76.2%.

Going from `CC(=NNC(=N)N)c1cn(S(=O)(=O)c2cccc3nonc23)c2ccccc12` [Example 25] to `CC(=NNC(=N)N)c1cn(S(=O)(=O)c2ccc(S(C)(=O)=O)cc2)c2ccccc12` [Example 48, 2-[1-(1-{[4-(methylsulfonyl)phenyl]sulfonyl}-1H-indol-3-yl)ethylidene]hydrazinecarboximidamide], the inhibition at 0.1 µM falls from 79.6% to 43.9%.

First: CCCCS(=O)(=O)n1cc(C(=NNC(=N)N)C2CC2)c2ccccc21 [Example 60, 2-[[1-(butylsulfonyl)-1H-indol-3-yl](cyclopropyl)methylidene]hydrazinecarboximidamide]
Second: CC(=NNC(=N)N)c1cn(S(=O)(=O)c2c(Cl)sc(Cl)c2Br)c2ccccc12 [Example 27, 2-(1-{1-[(4-bromo-2,5-dichlorothien-3-yl)sulfonyl]-1H-indol-3-yl}ethylidene)hydrazinecarboximidamide]
The inhibition at 0.1 µM of the first is higher: 62.6% for the first, 33.8% for the second.

`CC(=NNC(=N)N)c1cn(C(=O)c2ccccc2)c2ccccc12` [Example 130, 2-[1-(1-benzoyl-1H-indol-3-yl)ethylidene]hydrazinecarboximidamide] was tested, and the inhibition at 0.1 µM was 49.6%.

Same assay, conditions: test compound dose 1000 nM; [3H]-LSD 3.0 nM

With `Cc1ccc(S(=O)(=O)n2cc(C=NNC(=N)N)c3ccccc32)cc1` [Example 3, 2-({1-[(4-methylphenyl)sulfonyl]-1H-indol-3-l}methylidene)hydrazinecarboximidamide] the “% Inhibition” value was 71.0%.

Same assay, conditions: test compound dose 1000 nM; [3H]-LSD 3.0 nM; read-out: % Inhibition

First: CCCCC(=NNC(=N)N)c1cn(S(=O)(=O)CCCC)c2ccccc12 [Example 59, 2-{1-[1-(butylsulfonyl)-1H-indol-3-yl]pentylidene}hydrazinecarboximidamide]
Second: CCCCC(=NNC(=N)N)c1cn(S(=O)(=O)CCCC)c2ccc(Cl)cc12 [Example 76, 2-{1-[1-(butylsulfonyl)-5-chloro-1H-indol-3-yl]pentylidene}hydrazinecarboximidamide]
The inhibition at 1 µM of the first is higher: 77.7% for the first, 74.5% for the second.

First: N=C(N)NN=C(c1c(-c2ccc(Cl)cc2)n(S(=O)(=O)c2ccc3ccccc3c2)c2ccccc12)C1CC1 [Example 94, 2-[[2-(4-chlorophenyl)-1-(2-naphthylsulfonyl)-1H-indol-3-yl](cyclopropyl)methylidene]hydrazinecarboximidamide]
Second: CCCCC(=NNC(=N)N)c1cn(S(=O)(=O)c2ccc3ccccc3c2)c2ccc(Cl)cc12 [Example 82, 2-{1-[5-chloro-1-(2-naphthylsulfonyl)-1H-indol-3-yl]pentylidene}hydrazinecarboximidamide]
The inhibition at 1 µM of the first is lower: 27.9% for the first, 46.9% for the second.
